Experimental data reported in the supplement of paper PMC10307832.

Tests used:
Assay in all cases: relative viability (nuclei count vs DMSO), 5 days (fraction); higher = more cells survive
[1] = compound: CC(O)(CS(=O)(=O)c1ccc(F)cc1)C(=O)Nc1ccc(C#N)c(C(F)(F)F)c1 [Bicalutamide] + C[C@@H](Oc1cc(-c2cnn(C3CCNCC3)c2)cnc1N)c1c(Cl)ccc(F)c1Cl [Crizotinib] (partner 1 µM)
Summary of the method: (§1)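 Five library-drug doses in √10 steps were combined with a fixed anchor-drug dose, or a single drug was given alone, by pin tool to lung cancer cell lines in 1536-well plates the day after seeding. Nuclei were stained and counted after 5 days. Relative viability is the nuclei count in treated wells over that in vehicle wells, taken as the median of duplicate plates.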

[2] = compound: C(C(=O)C(=O)O)Br [Bromopyruvate] + CC(=O)Nc1cccc(-n2c(=O)n(C3CC3)c(=O)c3c(Nc4ccc(I)cc4F)n(C)c(=O)c(C)c32)c1 [Trametinib] (partner 0.02 µM)
Summary of the method: as §1

[3] = compound: C(C(=O)C(=O)O)Br [Bromopyruvate] + Nc1ncn([C@H]2C[C@H](O)[C@@H](CO)O2)c(=O)n1 [Decitabine] (partner 2 µM)
Summary of the method: as §1

[4] = compound: C(C(=O)C(=O)O)Br [Bromopyruvate] + CC(C)C[C@H](NC(=O)[C@H](Cc1ccccc1)NC(=O)c1cnccn1)B(O)O [Bortezomib] (partner 0.002 µM)
Summary of the method: as §1

RERF-LC-KJ
relative viability ([1]; first compound 0.08 µM): 0.874 | relative viability ([1]; first compound 0.253 µM): 0.849 | relative viability ([1]; first compound 0.8 µM): 0.872 | relative viability ([1]; first compound 2.53 µM): 0.855 | relative viability ([2]; first compound 1 µM): 0.657 | relative viability ([2]; first compound 3.162 µM): 0.984 | relative viability ([2]; first compound 10 µM): 0.921 | relative viability ([2]; first compound 31.62 µM): 0.85 | relative viability ([2]; first compound 100 µM): 0.909 | relative viability ([3]; first compound 1 µM): 0.738 | relative viability ([3]; first compound 3.162 µM): 0.745 | relative viability ([3]; first compound 10 µM): 0.791 | relative viability ([3]; first compound 31.62 µM): 0.794 | relative viability ([3]; first compound 100 µM): 0.72 | relative viability ([4]; first compound 1 µM): 1.09 | relative viability ([4]; first compound 3.162 µM): 1.14 | relative viability ([4]; first compound 10 µM): 1 | relative viability ([4]; first compound 31.62 µM): 1.18 | relative viability ([4]; first compound 100 µM): 1.29
